Test in all cases: DTP human tumour cell line panel, 48 h
The test system of assay [1] is NCI-H460 lung.
Assay [2] has as its system MDA-MB-435.
Assay [3] concerns IGROV1 ovarian.
Assay [4] concerns K-562 leukemia.
The test system of assay [5] is LOX IMVI melanoma.
Assay [6] has as its system OVCAR-3 ovarian.
In assay [7] the test system is ACHN renal.
Assay [8] deals with COLO 205 colon.
Assay [9] concerns SW-620 colon.
The test system of assay [10] is MDA-N.

As usually defined, the TGI is the concentration giving total growth inhibition.

The structures appear in SMILES notation.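 How tested: cells in 96-well plates exposed to compound for 48 hours at five concentrations. TGI: concentration producing complete growth inhibition.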

In the case of `CN(C)CCn1c(=O)c2ccc(NCCN3CCNCC3)c3c(=O)c4ccccc4n(c1=O)c23`, the TGI in [1] turned out to be 12 µM; in assay [2], 9.01 µM; in assay [3] it was 12.1 µM; in [4], 6.85 µM; in assay [5] it was 11.9 µM; in [6], 25.1 µM. The total growth inhibition concentration (TGI) is 15.7 µM in [7], 13 µM in assay [8], 21.3 µM in assay [9] and 18.9 µM in assay [10].
Turning to `COc1ccc(N2C(=O)C3c4[nH]c5ccc(Br)cc5c4C4CCC(C(C)(C)C)CC4C3C2=O)cc1` (stereo unspecified), the TGI in assay [1], in [2], in assay [3], in [4], in assay [5] and in [6] was over 100 µM throughout. The TGI in assay [7], in assay [8], in [9] and in assay [10] was over 100 µM throughout.
For the compound `NC(=O)Cc1nc2c(N)ncnc2n1C1OC(CO)C(O)C1O` (stereo unspecified), the concentration for total growth inhibition (TGI) in assay [1], in assay [2], in assay [3], in assay [4], in [5] and in assay [6] was over 100 µM throughout. Further, the concentration for total growth inhibition (TGI) in [7], in assay [8], in assay [9] and in assay [10] was over 100 µM in each case.
Regarding `CCOC(=O)C(Cc1ccc(OC(=O)c2ccc(OC)cc2)cc1)NC(=O)C(F)(F)F` (stereo unspecified), the TGI in [1], in [2], in assay [3], in assay [4], in assay [5] and in assay [6] was over 100 µM throughout. In addition, the TGI in assay [7], in assay [8], in [9] and in assay [10] was over 100 µM each time.
As for `CCOC(=O)C1c2[nH]c3ccccc3c2CCN1C(=O)c1ccc(OC)o1` (stereo unspecified), the concentration for total growth inhibition (TGI) in assay [1], in assay [2], in [3], in [4], in assay [5] and in [6] was over 10 µM throughout. The concentration for total growth inhibition (TGI) in [7], in [8], in [9] and in [10] was over 10 µM in each case.
In the case of `COc1ccc(/C=C2\CCS(=O)(=O)c3ccccc3C2=O)cc1`, the TGI was 57 µM in [1]; 89.8 µM in [2]; 43.1 µM in assay [3]; over 100 µM in assay [4]; 40.4 µM in [5]; 93.8 µM in assay [6]. Besides, the concentration for total growth inhibition (TGI) turned out to be 47.2 µM in assay [7], 30.5 µM in assay [8], 49.1 µM in [9] and 77.3 µM in [10].
Turning to `CCOC(=O)C1=CCOc2cc(N(C)C)ccc21`, the concentration for total growth inhibition (TGI) in assay [1] was over 100 µM; in [2], over 100 µM; in [3] it was over 100 µM; in assay [4], over 100 µM; in assay [5], over 100 µM; in assay [6], 55.3 µM. For the same compound, the TGI in assay [7], in assay [8], in assay [9] and in [10] was over 100 µM throughout.
`COC(=O)C1(C#N)C(C)(C)N=C(c2ccccc2)C12CCCCC2` (stereo unspecified): the total growth inhibition concentration (TGI) in [1], in [2], in [3], in assay [4], in assay [5] and in [6] was over 100 µM throughout. Further, the TGI in assay [8], in assay [9] and in [10] was over 100 µM in each case.
For `Cn1c(=O)c2c(nc3n2CCCC(=O)N3CC(O)CCl)n(C)c1=O` (stereo unspecified), the concentration for total growth inhibition (TGI) in assay [1], in [2], in assay [3], in assay [4], in assay [5] and in assay [6] was over 100 µM throughout. Moreover, the TGI in [7], in [8], in assay [9] and in assay [10] was over 100 µM throughout.
On to `O=c1c2cc3c(=O)n4c(cc(-c5ccccc5)c5cc(Cl)ccc54)nc3cc2nc2cc(-c3ccccc3)c3cc(Cl)ccc3n12`, for which the TGI in assay [1], in assay [2], in assay [3], in assay [4], in assay [5] and in [6] was over 100 µM in each case. Moreover, the concentration for total growth inhibition (TGI) in [7], in [8], in assay [9] and in [10] was over 100 µM in each case.
Consider `Cc1c2c(c(O)c3c(O)cccc13)C(=O)C1(O)C(O)=C(C(=O)NCNc3ccc(C(N)=O)cn3)C(=O)C(N(C)C)C1C2` (stereo unspecified), for which the concentration for total growth inhibition (TGI) is 27.1 µM in assay [2]; 6.27 µM in [3]; 6.26 µM in assay [4]; over 100 µM in assay [5]; 6.84 µM in [6]; over 100 µM in [8]. For the same compound, the TGI in [9] stood at 42 µM; in assay [10], 98.5 µM.
As for `C=CCN(C(=O)OC(C)(C)C)[C@H](C)C(=O)N[C@@H](C)C(=O)OC`, the total growth inhibition concentration (TGI) in assay [2], in assay [3], in assay [4], in assay [5], in assay [6] and in [7] was over 100 µM throughout. The concentration for total growth inhibition (TGI) in [8], in assay [9] and in assay [10] was over 100 µM throughout.
As to `COc1ccccc1C1ON=C(c2ccc([N+](=O)[O-])cc2)N1C12CC3CC(CC(C3)C1)C2` (stereo unspecified), the TGI in assay [1], in assay [2], in [3], in [4], in assay [5] and in [6] was over 100 µM each time. For the same compound, the TGI in assay [7], in assay [8], in assay [9] and in assay [10] was over 100 µM in each case.
As to `S=C1CCSc2c(ccc3ccccc23)N1`, the TGI in assay [1], in assay [2], in [3], in assay [4], in assay [5] and in [6] was over 100 µM throughout. The total growth inhibition concentration (TGI) in assay [7], in assay [8] and in assay [10] was over 100 µM throughout.
Take `CC(=O)O[C@H]1CC[C@@]2(C)C(=CC[C@@H]3[C@@H]2CC[C@]2(C)c4c(C)nn(-c5ccccc5)c4C[C@@H]32)C1`: the concentration for total growth inhibition (TGI) in [1] was 47.9 µM; in assay [2], over 100 µM; in assay [3], over 100 µM; in [4] it was over 100 µM; in assay [5] it was 27.6 µM; in [6] it was over 100 µM. Besides, the TGI in [7] is 61.1 µM; in assay [8] it was 36.2 µM; in assay [9], over 100 µM; in assay [10], over 100 µM.
Turning to `C/C(CC(O)(/C=N/O)c1ccccc1)=N/O` (stereo unspecified), the TGI in assay [1], in [2], in assay [3], in [4], in [5] and in assay [6] was over 100 µM throughout. In addition, the total growth inhibition concentration (TGI) in [7], in assay [9] and in [10] was over 100 µM throughout.
In the case of `O=c1[nH]nc(Cc2c[nH]c3ccccc23)o1`, the total growth inhibition concentration (TGI) in [2], in assay [3], in assay [4], in assay [5], in assay [6] and in assay [7] was over 100 µM in each case. Also, the TGI in [8], in assay [9] and in assay [10] was over 100 µM in each case.
For the compound `CCOC(=O)C1(C(=O)OCC)OC(C)=NC1(C(=O)OC)C(=O)OC`, the total growth inhibition concentration (TGI) in assay [1], in assay [2], in assay [3], in [4], in [5] and in assay [6] was over 100 µM in each case. For the same compound, the TGI in [7], in assay [8], in assay [9] and in assay [10] was over 100 µM each time.
With `NC(=O)NCCCC(NC(=O)OCCCCCCn1ccc(=O)[nH]c1=O)C(=O)O` (stereo unspecified), the TGI in assay [1], in assay [2], in [3], in assay [4], in [5] and in assay [6] was over 100 µM in each case. Also, the total growth inhibition concentration (TGI) in assay [7], in [8], in assay [9] and in assay [10] was over 100 µM in each case.
For `CC(=O)NC1(c2cc3ccccc3s2)CCCCCC1`, the TGI in assay [1] is over 100 µM; in [2] it was over 100 µM; in assay [3], over 100 µM; in assay [4], 97.3 µM; in [5], over 100 µM; in assay [6], 62.8 µM. In addition, the TGI in assay [7] was over 100 µM; in assay [8], 50 µM; in [9], over 100 µM; in assay [10], over 100 µM.
In the case of `CCOC(=O)c1cc2/c(=C\c3ccc(N(C)C)cc3)c3ccccc3n2[n+]1C`, the TGI in assay [1] is 12.6 µM; in assay [2], 11.5 µM; in assay [4], over 58 µM; in [5], 3.78 µM; in assay [6], 0.581 µM; in assay [7], 20.4 µM. Also, the TGI in [8] worked out at 1.42 µM; in assay [9] it was 13.1 µM; in assay [10], 15.3 µM.
As for `N#CC(=N)c1ncn(-c2ccc(N)cc2)c1N`, the TGI in [1], in [2], in assay [3], in assay [4], in [5] and in assay [6] was over 100 µM throughout. The total growth inhibition concentration (TGI) in assay [7], in [8], in assay [9] and in [10] was over 100 µM each time.
Turning to `CCOC(=O)C1=NN(c2ccc([N+](=O)[O-])cc2)[C@@]2(C)C[C@]3(c4ccccc4)N(c4ccc([N+](=O)[O-])cc4)N=C(C(=O)OCC)N3c3ccccc3N12`, the concentration for total growth inhibition (TGI) in assay [2], in assay [3], in assay [4], in [5], in assay [6] and in assay [7] was over 100 µM in each case. The TGI in assay [8], in assay [9] and in assay [10] was over 100 µM in each case.
Consider `O=c1ccn(COC(COCc2ccccc2)COCc2ccccc2)c(=O)[nH]1`, for which the TGI in assay [1], in assay [2], in [3], in assay [4], in assay [5] and in assay [6] was over 100 µM in each case. Further, the TGI in assay [8], in [9] and in assay [10] was over 100 µM throughout.
Take `CN(C)C(c1ccccc1)C1COC2Cc3ccccc3C1O2` (stereo unspecified): the concentration for total growth inhibition (TGI) in [1], in [2], in [3], in assay [4], in [5] and in [6] was over 100 µM each time. In addition, the total growth inhibition concentration (TGI) in [7], in assay [8] and in [10] was over 100 µM in each case.
As to `COC1CC(COCc2ccccc2)CC(OC)O1` (stereo unspecified), the concentration for total growth inhibition (TGI) in [1], in [2], in assay [4], in [5], in assay [6] and in assay [7] was over 100 µM each time. The TGI in assay [8], in [9] and in [10] was over 100 µM in each case.
In the case of `O=C(CN1CCOCC1)c1ccc2c(c1)oc(=O)n2CCN1CCOCC1`, the TGI in assay [2], in assay [3], in [4], in [5], in assay [6] and in [8] was over 100 µM throughout. The TGI in assay [9] and in assay [10] was over 100 µM throughout.

Source of the values: PubChem BioAssay (NCI).
